In US20050197274A1, “Solid laundry detergent granules with polyanionic ammonium surfactant and non-aqueous binder” (Unilever Home & Personal Care USA, Division of Conopco, Inc., priority 2004, published 2005):

Assay: Water solubility: appearance and pH of the aqueous mix while acid and polyamine are combined
Type: physicochemical
Conditions: TEPA 2.0 g in water 94.0 g, before LAS acid
Excerpt: As PAAS began forming, the solution became hazy. Upon further addition of the LAS acid, the hazy solution became a dispersion. Upon standing for hours, the dispersion formed a layer of sediment at the bottom of the beaker. Even a very diluted formulation (such as below 0.1%) was hazy. […] The solution was clear at the all time over the entire pH range, leading to the conclusion that Na-LAS was fully ionized or disassociated. […] Example 1 was repeated, except that fatty acid was used in place of LAS acid.

With NCCNCCNCCNCCN [TEPA, Tetraethylenepentamine] the “Observations (appearance)” value was “Clear”.
